This note sets out measurements from patent US9480664B2, “Compositions and methods for treating cancer” (Augusta University Research Institute, Inc., priority 2014, dated 2016).

Data set [1] relates to MC38 cells. The experiment in a line: MC38 cell proliferation by BrdU ELISA assay. Type of data set: cell-based, mouse. The settings on record: 48 h. As to the method:
MC38 cells were seeded at a density of 5×10^3 cells/well in 10% FBS/DMEM in 96-well plates. […] BrdU ELISA assay was done using an ELISA kit (CycLex Co., Nagano, Japan). Briefly, 3 h before assay, BrdU (10 μM final concentration) was added to the 96-well plates containing MC38 cells given different incubation conditions. After 3 h of incubation, the culture medium was removed, and fixed with Fixing/Denaturing solution (200 μl/well) at room temperature for 30 min. After removing Fixing/Denaturing solution, plates were incubated with monoclonal anti-BrdU antibody (50 μl/well) at room temperature for 1 h. Plates were washed five times with Wash buffer (200 μl/well), then incubated with the secondary antibody (50 μl/well) at room temperature for 1 h. After removing the secondary antibody and doing a second wash procedure, plates were incubated with Substrate Reagent (50 μl/well) at room temperature for 15 min in the dark. The reaction was then stopped by adding Stop Solution (50 μl/well). The absorbance in each well was measured using a Tecan GENios Plus microplate reader at dual wavelengths of 450/540 nm.
For orientation: Uptake of a labelled nucleoside into DNA is a usual measure of proliferation.

For data set [2], the system named is MC38 cells. The experiment in a line: MC38 cell growth by counting cell numbers. The format is cell-based, mouse. Conditions: single agent 100 nM to 10 μM, 48 h, serum-free medium + EGF 200 ng/ml; FIG. 3A/3B. As to the method: For cell growth experiments, cells were seeded onto 6-well plates at a density of 2.5×10^5 cells/well. […] After 48 h of treatment, cells were collected using 0.25% trypsin-EDTA and counted using a hemocytometer.

Another data set concerns plasma eicosanoids. The experiment in a line: Plasma 20-HETE and other eicosanoids in MC38 tumor mice (LC/MS/MS). Conditions: 3 weeks; for Plasma 20-HETE levels / Plasma levels of EETs/DHETs, 5-HETE, 8-HETE, 11-HETE, 15-HETE: rofecoxib 50 mg/l, HET0016 5 mg/kg/day i.p. given with rofecoxib, FIG. 6A. Type of data set: in vivo, mouse. As to the method:
After 3 weeks of different treatments, MC38 tumor mice were anesthetized with 2% isoflurane delivered by an anesthesia apparatus. About 0.6 ml of venous blood was collected from mice using a 1-ml syringe containing sodium citrate. The samples were centrifuged at 2,400×g for 15 min to obtain platelet-free plasma. To stabilize eicosanoids in plasma samples, 10 μl combinations of antioxidants (EDTA (0.2 mg/l), butylated hydroxytoluene (0.2 mg/l), and triphenyphosphine (2 mg/l)) were added to each plasma sample. The plasma samples were stored at −80° C. until LC/MS/MS analysis. Plasma samples were spiked with 10 ng of 15(S)-HETE-d8, applied to preconditioned SEP Pak C18 cartridges (100 mg adsorbent, Waters), and washed with water followed by hexane. Eicosanoids were eluted with 500 μl of ethyl acetate-hexane (3:1). The eluate was dried under nitrogen and reconstituted in methanol: 25 mM aqueous ammonium acetate (7:3). The extracted and reconstituted sample was subjected to HPLC (Shimadzu Prominence XR system) on a Max-RP C18 column (2×150 mm, 3 μu, Phenomenex) isocratically eluted with methanol:13 mM aqueous ammonium acetate (8:2) at a flow rate of 0.4 ml/min. The eluent was monitored for 20-HETE, EETs (5,6-EET, 8,9-EET, 11,12-EET, 14,15-EET), DHETs (5,6-DHET, 8,9-DHET, 11,12-DHET, 14,15-DHET), 5-HETE, 8-HETE, 11-HETE, 15-HETE, PGJ2, PGE2, TXB2, and 15keto-PGE2 by mass spectrometer (QTRAP5500, ABSCIEX) in the negative ion mode using Multiple Reaction Monitoring under optimized conditions. 15(S)-HETE-d8 was used as the internal standard for recovery and quantitation. The concentrations of eicosanoids were determined by comparing the ratio of ion intensity of each eicosanoid versus that of 15(S)-HETE-d8, as described previously (Chen, et al., Prostaglandins Other Lipid Mediat 104-105:42-48 (2013); Maddipati, et al., Prostaglandins Other Lipid Mediat 94:59-72 (2011)).

Data set [3] relates to 20-HETE production in MC38 cells. The experiment in a line: 20-HETE production in cultured MC38 cells (LC/MS/MS). Type of data set: cell-based, mouse. Conditions: HET0016 1 μM vs vehicle; FIG. 1C. As to the method:
(§1) MC38 cells were maintained in complete medium consisting of DMEM supplemented with 10% heat-inactivated FBS, […] streptomycin, and 100 U/ml penicillin in a humidified incubator at 37° C. with 5% CO2. Sub-confluent cultured cells were harvested by washing T-75 flasks two times with Ca^2+- and Mg^2+-free Earl's balanced salts, followed by 2 min incubation with 0.25% trypsin-EDTA (Life Technologies, Grand Island, N.Y.) at 37° C. A human cerebral microvascular endothelial cell line (HCMECL) was used in the studies (University of Georgia, Athens, Ga.). Primary rat brain microvascular endothelial cells (RBMEC) were prepared as described previously (Prakash, et al., Diabetes 61:97 1533-1542 (2012)). HCMECL and RBMEC were maintained in MCDB-131 complete medium (VEC Technologies, Rensselaer, N.Y.).
(§2) MC38 cells were collected using 0.25% trypsin-EDTA. After centrifugation, a cell pallet was re-suspended in 300 μl of PBS. […] The concentrations of 20-HETE in media and cell lysates were determined by Liquid Chromatography—Tandem Mass Spectrometry (LC/MS/MS) using 15(S)-HETE-d8 as an internal standard as described previously (Chen, et al., Prostaglandins Other Lipid Mediat 104-105:42-48 (2013)). […] The concentrations of PGE2 in media and cell lysates were determined by an ELISA kit (Cayman Chemical, Ann Arbor, Mich.) according to the manufacturer's instructions.

The test system of the next data set is subcutaneous MC38 tumors. The experiment in a line: Tumor growth in MC38 colon tumor-bearing C57BL/6J mice. The format is in vivo, mouse. Conditions: HET0016 5 or 10 mg/kg/day i.p.; rofecoxib 50 mg/l in drinking water; combination compared with rofecoxib alone; FIG. 5. As to the method:
8-week-old male C57BL/6J mice were subcutaneously injected with MC38 cells (1.4×10^6 cells/mouse) to induce colon tumor. […] All treatments were done for 21 days. Rofecoxib (50 mg/l) was suspended in drinking water containing 1% (vol/vol) PEG 400 (Sigma-Aldrich) and 0.5% (wt/vol) 2-hydroxypropyl-β-cyclodextrin (Sigma-Aldrich). The formula and dose of rofecoxib were prepared according to a previous publication (Liu, et al., Proc Natl Acad Sci USA 107: 17017-17022 (2010)). Tumor growth rates were monitored by measuring tumor volume with a sliding caliper on day 9 or day 18 after cell-implantation. The volumes of tumors were calculated from the major dimension (L) and minor dimension (S), using the equation: tumor volume=L×(S)2/2 as described previously (Konson, et al., Cancer Gene Ther 11: 830-840 (2004)).

Data set [4] is described as follows: Water intake and body weight of treated mice. The format is in vivo, mouse. The settings on record: rofecoxib 50 mg/l in drinking water, n=5. As to the method: In a complementary experiment, the water intake and body weight of mice treated with water, vehicle, and rofecoxib (50 mg/l) was determined. Neither vehicle (3.02±0.17 vs. 3.16±0.16 ml/24 h/mouse, n=5) nor rofecoxib (3.07±0.1 vs. 3.16±0.16 ml/24 h/mouse, n=5) treatment affected water intake. Likewise, there was no significant change of body weight among water (24±1.63 g/mouse, n=5), vehicle (23.8±1.1 g/mouse, n=5), and rofecoxib (24.5±1.0 g/mouse, n=5) group.

Data set [5] relates to MC38 tumor mice subjected to thromboembolic stroke. Nature of the data set: Thromboembolic ischemic stroke in MC38 tumor mice: neurovascular injury and functional outcome. Type of data set: in vivo, mouse. The text has this:
Age-matched non-tumor mice were usedas control. At the end of the treatment period, mice were subjected to thromboembolic stroke. Under isoflurane anesthesia, the right common carotid artery, the right external carotid artery (ECA), and the right internal carotid artery were exposed through a middle incision on the ventral side of the neck. A PE 10 catheter containing a fibrin-rich clot was gently inserted from the ECA stump into the distal internal carotid artery just proximal to the origin of the middle cerebral artery (MCA). Each clot (˜1 cm), prepared from a donor mouse, was injected with 75 μl of sterile PBS; after 2 min, the catheter was withdrawn as described previously (Hoda, et al., Exp Transl Stroke Med 3:16 (2011)). Occlusion was confirmed by a ≧70% drop in cerebral blood flow as compared to the pre-ischemic value. The success rate of thromboembolic MCA occlusion was 95% based on changes in cerebral blood flow. At day 3 after surgery, mice were first evaluated for functional outcome, then sacrificed for evaluation of neurovascular injury including infarct size and bleeding. Extracted brains were analyzed for infarct size in coronal slices of 2 mm thickness, labeled A-G, front to back. Hemorrhagic transformation (HT), secondary bleeding into the brain after ischemic stroke was evaluated by the presence of visible macroscopic bleeding and measured in a binary fashion: yes or no. Number of animals that had HT was reported per group. 2, 3, 5-Triphenyltetrazolium chloride (TTC), a mitochondria stain, was used to outline the infarct area. The captured images were numerically labeled and analyzed using specialized KS300 software. Infarct size was expressed as a percentage of the contralateral hemisphere. Neurologic deficits in mice given different treatments were assessed at 24 h and 72 h after stroke, using a 5-point scale for scoring: 0, no deficit; 1, forelimb flexion deficit on contralateral side; 2, decreased resistance to lateral push and torso turning to the ipsilateral side when held by tail; 3, significant circling to the affected side and reduced capability to bear weight on the affected side; 4, rarely moved spontaneously and preferred to stay at rest.

For data set [6], the system named is PGE2 production in MC38 cells. Nature of the data set: PGE2 production in MC38 cells (PGE2 ELISA). The format is cell-based, mouse. The settings on record: dose response; FIG. 2C. As to the method: as §1, §2
(In general: In an ELISA, binding on a coated surface is turned into a signal by an enzyme label.)

The next data set relates to Cyp4a. The experiment in a line: Cyp4a expression in liver and kidney of MC38 tumor mice (Western blot). The format is in vivo, mouse. The settings on record: 3-week rofecoxib treatment, FIG. 6C. On the technique in general: A western blot detects proteins with antibodies after separation by electrophoresis.
Data set [7] concerns B6 mice subjected to ischemic stroke. The experiment in a line: Ischemic stroke in B6 mice supplemented with 20-OH PGE2. The settings on record: 20-OH PGE2 250 ng/h via osmotic pump, 7 days, vs vehicle. The format is in vivo, mouse. As to the method:
B6 mice were divided into two groups: one supplemented with 20-OH PGE2 (250 ng/h in an osmotic pump) and one given vehicle. After one week of treatment, the mice were subjected to ischemic stroke.
Although 20-OH PGE2 elicits beneficial protective effects in brain endothelial cells under OGD/Rep, the precise role of 20-OH PGE2 in ischemic stroke is still to be defined. To determine the effects of 20-OH PGE2 supplementation on stroke damage, B6 mice were treated with 20-OH PGE2 (Cayman) (administered via an osmotic pump (Alzet) at a dose of 250 ng/h) or vehicle for 7 days. The effects of 20-OH PGE2 on infarct size and neurological deficit after ischemic stroke were examined.

On to `CCCCc1ccc(N=CNO)c(C)c1` [HET0016, N-Hydroxy-N′-(4-butyl-2-methylphenyl)formamidine], for which, in the data set with MC38 cells [1] (100 nM to 10 μM, serum-free medium + EGF 200 ng/ml, FIG. 4A), the “BrdU incorporation into MC38 cells” value was “inhibited the incorporation of BrdU in a concentration dependent manner”. Moreover, in the data set on MC38 cells [2], the “MC38 cell growth (cell number/well)” value is reported as “inhibited cell growth”. Besides, in the data set on plasma eicosanoids, the “Plasma 20-HETE levels” value is given as “selectively reduced plasma 20-HETE levels” and the “Plasma levels of EETs/DHETs, 5-HETE, 8-HETE, 11-HETE, 15-HETE” value was “without affecting”. Further, the “Plasma PGJ2, PGE2, TXB2 and 15 keto-PGE2 levels” value in the data set with plasma eicosanoids (HET0016 5 mg/kg/day i.p., FIG. 6B) is on record as “did not affect”. Moreover, the “20-HETE production and secretion in MC38 cell media” value in data set [3] was “effectively blocked 20-HETE production and secretion”. Moreover, in the data set with subcutaneous MC38 tumors, the “Tumor size on day 9 post implantation” value is “did not affect tumor size” and the “Tumor size on day 18 post-implantation” value was “dose-dependently reduced tumor size”.

As to `CS(=O)(=O)c1ccc(C2=C(c3ccccc3)C(=O)OC2)cc1` [rofecoxib], in the data set with MC38 cells [1] (1 μM (combination 1 μM each, compared with rofecoxib alone), FIG. 4B/4C), the “BrdU incorporation into MC38 cells at 1 μM” value was “significantly inhibited BrdU incorporation”. For the same molecule, the “MC38 cell growth (cell number/well)” value in the data set with MC38 cells [2] is given as “inhibited cell growth”. The molecule further yielded a Body weight in data set [4] of 24.5±1.0 g/mouse. Also, the Water intake in data set [4] (water group 3.16±0.16) is reported as 3.07±0.1 ml/24 h/mouse. Moreover, in the data set on plasma eicosanoids, the “Plasma 20-HETE levels” value is “selectively increased 20-HETE plasma levels” and the “Plasma levels of EETs/DHETs, 5-HETE, 8-HETE, 11-HETE, 15-HETE” value is “no significant changes”. The “Mortality after ischemic stroke” value in [5] (3 weeks treatment, rofecoxib 50 mg/l, HET0016 5 mg/kg/day i.p.) is listed as roughly 30%. Moreover, the “Animals that developed HT” value in [5] (C57BL/6J, mouse, in vivo, 3 weeks) is given as 4 out of the 5. Moreover, the “Functional outcome (neurological deficit score)” value in data set [5] (mouse, in vivo) is “neurological deficit scores were higher”. Besides, the Infarct size result in data set [5] (rofecoxib compared to control mice, combination compared to rofecoxib, FIG. 8B) is “reduced the size of infarcts”. Also, the “PGE2 production in MC38 cells” value in data set [6] was “dose-dependently inhibited PGE2 production”. In the data set with Cyp4a, the “cyp4a expression in the liver and kidney” value is listed as “had no effect on cyp4a expression”. In addition, in the data set with subcutaneous MC38 tumors, the “Tumor size on day 9 post implantation” value is listed as “significantly reduced tumor size” and the “Tumor size on day 18 post-implantation” value is listed as “significantly reduced tumor size”.

Turning to `O=C(O)CCC/C=C\C[C@H]1C(=O)C[C@@H](O)[C@@H]1/C=C/[C@@H](O)CCCCCO` [20-OH PGE2], in data set [7] (FIG. 10A), the “Infarct size after ischemic stroke” value is listed as “reduced”. Also, the “Neurological deficits after ischemic stroke” value in data set [7] (FIG. 10B) was “reduced”.
